Results on one molecule are retold here after paper PMC12696368, “Ancestral Chaperonins Provide the First Structural Glimpse into Early Multimeric Protein Evolution” (Molecular Biology and Evolution, 2025).

Holding throughout (test): phosphate release (BIOMOL GREEN), […]-60 °C
What all share (assay type): biochemical
Details in all cases: 0.5 mM ATP, 5 mM MgCl2, 150 mM KCl, 50 mM HEPES pH 7.4

In one test the target is T1, E. coli GroEL (Escherichia coli, UniProt P0A6F5).
T1 construct: recombinant, expressed and purified as the ancestral proteins (C-terminal His-tag, E. coli BL21 (DE3)); no GroES; double ring of two seven-subunit rings
T1 sequence (P0A6F5 2-548): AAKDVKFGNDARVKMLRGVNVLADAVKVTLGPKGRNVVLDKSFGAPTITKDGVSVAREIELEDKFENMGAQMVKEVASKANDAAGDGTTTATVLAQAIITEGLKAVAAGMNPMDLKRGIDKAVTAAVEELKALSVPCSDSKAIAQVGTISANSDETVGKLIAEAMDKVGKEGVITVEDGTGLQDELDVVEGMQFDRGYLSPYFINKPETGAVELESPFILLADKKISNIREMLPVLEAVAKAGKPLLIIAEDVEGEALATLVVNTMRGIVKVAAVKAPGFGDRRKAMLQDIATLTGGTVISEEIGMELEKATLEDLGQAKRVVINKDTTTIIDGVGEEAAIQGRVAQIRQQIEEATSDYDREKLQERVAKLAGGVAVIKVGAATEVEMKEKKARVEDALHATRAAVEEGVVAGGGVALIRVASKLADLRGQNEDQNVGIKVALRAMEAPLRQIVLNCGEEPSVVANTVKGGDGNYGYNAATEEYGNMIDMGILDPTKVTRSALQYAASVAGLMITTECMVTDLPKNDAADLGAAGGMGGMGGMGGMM

The next test addresses T2, ACIII (synthetic construct, UniProt Z9ZN04QL74).
T2 construct: ancestral reconstruction, C-terminal His-tag, expressed in E. coli BL21 (DE3); eight-subunit double rings
T2 sequence (Z9ZN04QL74 1-518): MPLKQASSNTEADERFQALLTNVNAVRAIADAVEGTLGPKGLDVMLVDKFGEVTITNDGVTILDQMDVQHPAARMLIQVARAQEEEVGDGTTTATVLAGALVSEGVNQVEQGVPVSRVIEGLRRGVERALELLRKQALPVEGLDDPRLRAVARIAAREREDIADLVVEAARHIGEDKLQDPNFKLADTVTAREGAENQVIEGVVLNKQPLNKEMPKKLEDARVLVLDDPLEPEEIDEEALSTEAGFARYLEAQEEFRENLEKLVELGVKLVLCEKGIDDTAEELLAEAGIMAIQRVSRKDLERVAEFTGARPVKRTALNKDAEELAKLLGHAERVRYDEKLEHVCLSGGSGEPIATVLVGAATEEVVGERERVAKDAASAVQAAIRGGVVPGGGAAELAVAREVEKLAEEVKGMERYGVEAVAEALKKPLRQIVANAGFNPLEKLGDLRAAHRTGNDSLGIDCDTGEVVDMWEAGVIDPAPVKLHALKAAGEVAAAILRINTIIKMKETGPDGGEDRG

The target of a further test is T3, ACI (synthetic construct, UniProt Z9T0T8YL69).
T3 construct: ancestral reconstruction, C-terminal His-tag, expressed in E. coli BL21 (DE3); single heptameric ring

The next test deals with T4, AFCB (synthetic construct, UniProt Z9BU06U866).
T4 construct: ancestral reconstruction, C-terminal His-tag, expressed in E. coli BL21 (DE3); 7-subunit double rings

In the case of `Nc1ncnc2c1ncn2[C@@H]1O[C@H](COP(=O)(O)OP(=O)(O)OP(=O)(O)O)[C@@H](O)[C@H]1O` [ATP], the “phosphate release (BIOMOL GREEN), 30-60 °C” value was “E. coli GroEL, ACI and ACIII exhibited similar hydrolysis patterns” on E. coli GroEL; “E. coli GroEL, ACI and ACIII exhibited similar hydrolysis patterns” on ACIII; “E. coli GroEL, ACI and ACIII exhibited similar hydrolysis patterns” at ACI; “showed the highest rate of ATP hydrolysis, followed by AFCB” at AFCB.
